Earlier results in patent US20220151997A1, “USE OF EPALRESTAT IN PREPARATION OF PANCREATIC CANCER DRUGS AND METHOD FOR VERIFYING INHIBITION EFFECT OF EPALRESTAT ON SECRETION OF EXOSOMES FROM PANCREATIC CANCER CELLS” (Affiliated Hospital of Nantong University, priority 2019, published 2022).

System: prostate cancer cells
Settings: by inhibiting the Ras signaling pathway and hnRNP H1 expression

In the case of `CCCC[C@@H](C)/C=C(C)/C=C(\C)C(=O)NC1=C[C@@](O)(/C=C/C=C/C=C/C(=O)NC2=C(O)CCC2=O)[C@@H]2O[C@@H]2C1=O` [Manumycin A], the “production and secretion of the exosomes” value is listed as “inhibits”.
